From patent US11026943B2, “Aminoquinoline derivatives and uses thereof” (UNIVERSITY OF DELHI, priority 2012, dated 2021) come the findings set out here.

Each structure is given as a SMILES string.

One data set in a line: Solubility (solvent listed in compound tables). It counts as physicochemical. The following applies: solvent named, Table 3.
In the case of `CCN(CC)c1nc(Cl)nc(NCCNc2ccnc3cc(Cl)ccc23)n1` [SM 137], the SOLUBILITY result is given as “DMSO”.

Regarding `Cc1cc(NCCCNc2ccnc3cc(Cl)ccc23)nc(N2CCOCC2)n1` [SM 493], the SOLUBILITY entry is “DMSO”.

Consider `CCc1ccc(Nc2nc(NCCCCNc3ccnc4cc(Cl)ccc34)nc(N3CCOCC3)n2)cc1` [SM 358], for which the SOLUBILITY result is “DMSO”.

`COc1ccc(Nc2nc(NCCNc3c4ccc(Cl)cc4nc4ccc(OC)cc34)nc(N3CCN(c4ccccc4)CC3)n2)cc1` [ATH 164]: the SOLUBILITY entry was “DMSO”.

With `Cc1cc(Cl)nc(NCCCNc2ccnc3cc(Cl)ccc23)n1` [SM 484B], the SOLUBILITY result is recorded as “DMSO”.

Turning to `Clc1ccc2c(NCCCNc3nccc(N4CCOCC4)n3)ccnc2c1` [SM 725], the SOLUBILITY result is on record as “DMSO”.

On to `Clc1ccc2c(NCCNc3nc(Cl)cc(Cl)n3)ccnc2c1` [SM 695B], for which the SOLUBILITY entry is listed as “DMSO”.

In the case of `Clc1ccc2c(NCCCNc3nc(Cl)cc(N4CCCCC4)n3)ccnc2c1` [SM 715], the SOLUBILITY entry is on record as “DMSO”.

Take `Cc1cc(N2CCN(c3ccnc4cc(Cl)ccc34)CC2)nc(N2CCCC2)n1` [ATH 256]: the SOLUBILITY entry is “DMSO”.

With `CCc1ccc(Nc2nc(NCCCNc3ccnc4cc(Cl)ccc34)nc(N3CCOCC3)n2)cc1` [SM 340], the SOLUBILITY result is listed as “DMSO”.

On to `Clc1ccc2c(NCCNc3nccc(N4CCOCC4)n3)ccnc2c1` [SM 733], for which the SOLUBILITY result was “DMSO”.

Consider `CN1CCN(c2ccnc(NCCNc3ccnc4cc(Cl)ccc34)n2)CC1` [SM 734], for which the SOLUBILITY entry was “DMSO”.

With `CCN1CCN(c2nc(Cl)cc(NCCNc3ccnc4cc(Cl)ccc34)n2)CC1` [SM 702], the SOLUBILITY result is “DMSO”.

`OCCNc1nc(NCCCCNc2ccnc3cc(Cl)ccc23)nc(N2CCOCC2)n1` [SM 345]: the SOLUBILITY result was “DMSO”.

Consider `CCN1CCN(c2cc(Cl)nc(NCCCNc3ccnc4cc(Cl)ccc34)n2)CC1` [SM 718], for which the SOLUBILITY result is listed as “DMSO”.

In the case of `CN1CCN(c2nc(Cl)cc(NCCNc3ccnc4cc(Cl)ccc34)n2)CC1` [SM 701], the SOLUBILITY entry is listed as “DMSO”.

With `Cc1cc(Cl)nc(NCCCCNc2ccnc3cc(Cl)ccc23)n1` [SM 498B], the SOLUBILITY entry is “DMSO”.

Take `Cc1cc(NCCNc2ccnc3cc(Cl)ccc23)nc(N2CCOCC2)n1` [SM 489]: the SOLUBILITY result is recorded as “DMSO”.

For the compound `Clc1ccc2c(NCCNc3nc(Nc4ccccc4)nc(Nc4ccccc4)n3)ccnc2c1` [SM 129], the SOLUBILITY entry is “DMSO”.

In the case of `Cc1cc(NCCCCCCNc2ccnc3cc(Cl)ccc23)nc(N2CCCCC2)n1` [SM 505], the SOLUBILITY result is reported as “DMSO”.

Consider `Clc1ccc2c(N3CCN(c4ccnc(N5CCCCC5)n4)CC3)ccnc2c1` [ATH 231], for which the SOLUBILITY entry was “DMSO”.

Consider `COc1ccc2nc3cc(Cl)ccc3c(NCCNc3nc(N4CCN(c5ccccc5)CC4)nc(N4CCN(c5ccccc5)CC4)n3)c2c1` [ATH 178], for which the SOLUBILITY result is recorded as “DMSO”.

Regarding `Clc1ccc2c(NCCCNc3nccc(Cl)n3)ccnc2c1` [SM 719B], the SOLUBILITY entry is on record as “DMSO”.

As for `Clc1ccc2c(NCCCNc3nccc(N4CCCCC4)n3)ccnc2c1` [SM 724], the SOLUBILITY result is on record as “DMSO”.

For `OCCCCNc1nc(NCCNc2ccnc3cc(Cl)ccc23)nc(N2CCOCC2)n1` [SM 360], the SOLUBILITY entry is “DMSO”.

Regarding `Clc1ccc2c(N3CCN(c4ccnc(Cl)n4)CC3)ccnc2c1` [ATH 218], the SOLUBILITY entry was “DMSO”.

As to `Clc1ccc2c(NCCNc3ccnc(Cl)n3)ccnc2c1` [SM 728A], the SOLUBILITY entry is reported as “DMSO”.

With `CN1CCN(c2cc(Cl)nc(NCCCNc3ccnc4cc(Cl)ccc34)n2)CC1` [SM 717], the SOLUBILITY entry is recorded as “DMSO”.

On to `OCCCNc1nc(NCCNc2ccnc3cc(Cl)ccc23)nc(N2CCCCC2)n1` [SM 370], for which the SOLUBILITY entry is given as “DMSO”.

For `COc1ccc(Nc2nc(NCCNc3ccnc4cc(Cl)ccc34)nc(N3CCOCC3)n2)cc1` [SM 332], the SOLUBILITY result was “DMSO”.

As to `Clc1ccc2c(NCCNc3cc(Cl)nc(Cl)n3)ccnc2c1` [SM 695A], the SOLUBILITY entry is “DMSO”.

With `Clc1ccc(Nc2ccnc(N3CCN(c4ccnc5cc(Cl)ccc45)CC3)n2)cc1` [ATH 227], the SOLUBILITY entry is “DMSO”.

As to `Clc1ccc2c(NCCNc3nc(Cl)cc(N4CCOCC4)n3)ccnc2c1` [SM 700], the SOLUBILITY entry is “DMSO”.

Regarding `Clc1ccc2c(NCCNc3nc(Cl)nc(Nc4ccccc4)n3)ccnc2c1` [SM 136], the SOLUBILITY entry is on record as “DMSO”.

As for `OCCCCNc1nc(NCCNc2ccnc3cc(Cl)ccc23)nc(N2CCCCC2)n1` [SM 373], the SOLUBILITY result is on record as “DMSO”.

As for `CCN1CCN(c2nccc(NCCCNc3ccnc4cc(Cl)ccc34)n2)CC1` [SM 723], the SOLUBILITY entry is given as “DMSO”.

For `Fc1ccc(Nc2nc(NCCNc3ccnc4cc(Cl)ccc34)nc(N3CCOCC3)n2)cc1` [SM 334], the SOLUBILITY entry is reported as “DMSO”.

For the compound `Cc1cc(N2CCN(c3ccnc4cc(Cl)ccc34)CC2)nc(N2CCOCC2)n1` [ATH 239], the SOLUBILITY entry is reported as “DMSO”.

Take `CCc1ccc(Nc2nc(NCCNc3ccnc4cc(Cl)ccc34)nc(N3CCOCC3)n2)cc1` [SM 335]: the SOLUBILITY result is recorded as “DMSO”.

With `COc1ccc(Nc2nc(NCCCNc3c4ccc(Cl)cc4nc4ccc(OC)cc34)nc(N3CCN(c4ccccc4)CC3)n2)cc1` [ATH 198], the SOLUBILITY entry was “DMSO”.

Consider `COc1ccc(Nc2nc(NCCNCc3c4ccc(Cl)cc4nc4ccc(OC)cc34)nc(N3CCOCC3)n2)cc1` [ATH 184], for which the SOLUBILITY result is “DMSO”.

In the case of `COc1ccc(Nc2nc(NCCCNc3ccnc4cc(Cl)ccc34)nc(N3CCOCC3)n2)cc1` [SM 337], the SOLUBILITY result is listed as “DMSO”.

In the case of `COc1cc(Nc2nc(NCCNCc3c4ccc(Cl)cc4nc4ccc(OC)cc34)nc(NC3CCCCC3)n2)cc(OC)c1` [ATH 194], the SOLUBILITY entry is recorded as “DMSO”.

For the compound `COc1cc(Nc2ccnc(N3CCN(c4ccnc5cc(Cl)ccc45)CC3)n2)cc(OC)c1` [ATH 214], the SOLUBILITY result is recorded as “DMSO”.

As to `Clc1ccc2c(N3CCN(c4nccc(Nc5ccccc5)n4)CC3)ccnc2c1` [ATH 232], the SOLUBILITY entry is “DMSO”.

Take `CN1CCN(c2ccnc(NCCCNc3ccnc4cc(Cl)ccc34)n2)CC1` [SM 726]: the SOLUBILITY result is “DMSO”.

As for `COc1ccc2nc3cc(Cl)ccc3c(CNCCNc3nc(N4CCN(c5ccccc5)CC4)nc(N4CCN(c5ccccc5)CC4)n3)c2c1` [ATH 179], the SOLUBILITY entry was “DMSO”.

As for `Clc1ccc2c(NCCCNc3ccnc(N4CCCCC4)n3)ccnc2c1` [SM 720], the SOLUBILITY entry is reported as “DMSO”.

With `Cc1cc(Cl)nc(NCCCCCCNc2ccnc3cc(Cl)ccc23)n1` [SM 504B], the SOLUBILITY result is “DMSO”.

In the case of `Clc1ccc2c(NCCCNc3nc(Nc4ccccc4)nc(N4CCOCC4)n3)ccnc2c1` [SM 341], the SOLUBILITY entry was “DMSO”.

For the compound `Clc1ccc2c(NCCNc3nc(Cl)nc(NCCNc4ccnc5cc(Cl)ccc45)n3)ccnc2c1` [SM 133], the SOLUBILITY result was “DMSO”.

Consider `CN1CCN(c2cc(Cl)nc(NCCNc3ccnc4cc(Cl)ccc34)n2)CC1` [SM 703], for which the SOLUBILITY entry was “DMSO”.

On to `OCCCNc1nc(NCCNc2ccnc3cc(Cl)ccc23)nc(N2CCOCC2)n1` [SM 350], for which the SOLUBILITY result was “DMSO”.

`CCN1CCN(c2cc(Cl)nc(NCCNc3ccnc4cc(Cl)ccc34)n2)CC1` [SM 704]: the SOLUBILITY result is recorded as “DMSO”.

Take `COc1ccc(Nc2nc(NCCCNc3c4ccc(Cl)cc4nc4ccc(OC)cc34)nc(N(C)C)n2)cc1` [ATH 166]: the SOLUBILITY result is “DMSO”.

As to `Clc1ccc2c(NCCCNc3cc(Cl)nc(N4CCOCC4)n3)ccnc2c1` [SM 712], the SOLUBILITY entry is recorded as “DMSO”.

Staying with this data set, now noted: solvent named, Table 4.
On to `Cc1ccc(Nc2cc(C)nc(NCCCCNc3ccnc4cc(Cl)ccc34)n2)cc1` [DKG859], for which the SOLUBILITY result is on record as “DMSO”.

On to `Fc1ccc(Nc2ccnc(NCCNc3ccnc4cc(Cl)ccc34)n2)cc1` [DKG817], for which the SOLUBILITY entry is “DMSO”.

Turning to `COc1ccc(Nc2ccnc(NCCCCNc3ccnc4cc(Cl)ccc34)n2)cc1` [DKG827], the SOLUBILITY result was “DMSO”.

With `Cc1ccc(Nc2ccnc(NCCCCNc3ccnc4cc(Cl)ccc34)n2)cc1` [DKG807], the SOLUBILITY entry is “DMSO”.

As for `Fc1ccc(Nc2ccnc(NCCCCNc3ccnc4cc(Cl)ccc34)n2)cc1` [DKG819], the SOLUBILITY entry was “DMSO”.

For the compound `Cc1ccc(Nc2ccnc(NCCNc3ccnc4cc(Cl)ccc34)n2)cc1` [DKG805], the SOLUBILITY entry is “DMSO”.

Consider `Cc1cc(Nc2ccc(Br)cc2)nc(NCCCCNc2ccnc3cc(Cl)ccc23)n1` [DKG851], for which the SOLUBILITY result is recorded as “DMSO”.

Consider `COc1cc(Nc2ccnc(NCCCNc3ccnc4cc(Cl)ccc34)n2)cc(OC)c1` [DKG830], for which the SOLUBILITY entry is recorded as “DMSO”.

Take `Clc1ccc(Nc2ccnc(NCCNc3ccnc4cc(Cl)ccc34)n2)cc1` [DKG813]: the SOLUBILITY entry is “DMSO”.

Regarding `Cc1cc(Nc2ccccc2)nc(NCCNc2ccnc3cc(Cl)ccc23)n1` [DKG833], the SOLUBILITY result is recorded as “DMSO”.

In the case of `COc1ccc(Nc2ccnc(NCCNc3ccnc4cc(Cl)ccc34)n2)cc1` [DKG825], the SOLUBILITY result is “DMSO”.

Regarding `Clc1ccc2c(NCCCNc3nccc(Nc4ccccc4)n3)ccnc2c1` [DKG822], the SOLUBILITY result is “DMSO”.

Staying with this data set, now noted: solvents listed for the compound.
Turning to `Cc1cc(NCCCNc2ccnc3cc(Cl)ccc23)nc(NCCCCCO)n1` [MT1-148], the SOLUBILITY entry is reported as “MeOH, DMSO”.

`Cc1cc(NCCNc2ccnc3cc(Cl)ccc23)nc(NCCO)n1` [MT1-185]: the SOLUBILITY entry was “MeOH, DMSO”.

Consider `Cc1cc(NCCNc2ccnc3cc(Cl)ccc23)nc(NCCCO)n1` [MT1-186], for which the SOLUBILITY entry is listed as “MeOH, DMSO”.

Consider `Cc1cc(NCCCNc2ccnc3cc(Cl)ccc23)nc(NCCO)n1` [MT1-145], for which the SOLUBILITY entry is “MeOH, DMSO”.

With `Cc1cc(NCCNc2ccnc3cc(Cl)ccc23)nc(NCCCCCO)n1` [MT1-190], the SOLUBILITY result was “MeOH, DMSO”.

Take `OCCNc1nccc(NCCCNc2ccnc3cc(Cl)ccc23)n1` [MT1-127]: the SOLUBILITY entry is recorded as “MeOH, DMSO”.

Consider `Cc1cc(NCCNc2ccnc3cc(Cl)ccc23)nc(NCCCCCCO)n1` [MT1-191], for which the SOLUBILITY entry was “MeOH, DMSO”.

Regarding `Cc1cc(NCCCCNc2ccnc3cc(Cl)ccc23)nc(NCCCO)n1` [MT1-193], the SOLUBILITY result is recorded as “MeOH, DMSO”.

As for `Cc1cc(NCCCNc2ccnc3cc(Cl)ccc23)nc(NCCCO)n1` [MT1-146], the SOLUBILITY entry is given as “MeOH, DMSO”.

As for `OCCCCCCNc1nccc(NCCCCNc2ccnc3cc(Cl)ccc23)n1` [MT1-163], the SOLUBILITY result is on record as “MeOH, DMSO”.

As for `OCCCCCCNc1nccc(NCCCNc2ccnc3cc(Cl)ccc23)n1` [MT1-132], the SOLUBILITY entry was “MeOH, DMSO”.
